Results reported in patent US4130514A, “Synthesis of peptides” (Armour Pharmaceutical Company, priority 1978, dated 1978).

Experiment: adrenocorticotropic activity of the purified peptides (no method described)
Settings: peptide purified by carboxymethylcellulose ion-exchange chromatography and Sephadex gel filtration; result in words only

## [D-ala^1, asn^25 ]-ACTH-(1-25) [[D-ala^1 ,gln^25]-ACTH-(1-25)]
  adrenocorticotropic activity: found to have adrenocorticotropic activity
